Ten compounds from US8426408B2, “Pyrimidine inhibitors of kinases” (AbbVie Inc., priority 2009, dated 2013) can be followed below.

For experiment [1], the target named is T1, KDR (Homo sapiens, UniProt P35968). In words: KDR cellular assay (KDR receptor phosphorylation ELISA). The class given is cell-based. Set-up: expressed in transfected cells; host or cells: 3T3 (embryonic mouse) cells. The settings on record: KDR transfected 3T3 (embryonic mouse) cells, VEGF stimulated; read-out: IC50 inhibition of KDR phosphorylation. The method, then: The ability of compounds to inhibit KDR receptor phosphorylation in cells was measured by ELISA following the protocol outlined below.
KDR transfected 3T3 (embryonic mouse) cells added to 96-well tissue culture plates at 20,000 cells/well.
Plates were covered and placed in a 37° C. humidified incubator with 5% CO2 overnight, to allow cells to adhere.
Coating solution was prepared: 500 l/vial PBS was added to 2 vials of anti-KDR antibody, then 1 ml solubilized anti-KDR antibody into 29.0 ml bicarbonate buffer. Coating solution was added to all wells at 150 µl/well (final amount anti-KDR=1 µg/well) and placed at 4° C. overnight.
Blocking solution (2.1 g dry milk+42 ml PBS=5% milk in PBS) was placed on a stir plate for 30 min.
Assay plates were washed twice with PBST, and 200 µl/well blocking solution was added to all wells. Assay plates were covered with plate sealers and placed in a 37° C. microplate chamber until just before cell lysate transfer.
Compound stocks were thawed or prepared in DMSO as 5 mM stocks.
Dilution medium (DM, 1% DMSO in DMEM) and compounds were diluted by half-log increments for concentration response analysis.
Conditioned media was dumped from the tissue culture plates, and plates were blotted dry.
Standard solution in DM, compound dilutions in DM, or DM (for high control, negative control, and reference wells) were added to the tissue culture plates, 25 µl/well. Each pair of tissue culture plates was prepared with the same compounds, solutions, and layout; and will be combined later; Tissue culture plates were covered and placed in the 37° C. microplate chamber for 20 min.
VEGF solution was prepared: 110 l VEGF stock+10.89 ml DM=100 ng/ml VEGF
VEGF solution or DM (for reference wells) was added to the tissue culture plates, 25 μl/well.
Tissue culture plates were covered and placed in the 37° C. microplate chamber for 10 min.
RIPA buffer was prepared (240 l NaVO3 stock+240 l PIC stock+24 l NaF stock+23.496 ml RIPA base) and added to the tissue culture plates, 50 µl/well.
Tissue culture plates were covered and placed on a Labline plate shaker for 10 min (speed about 5).
Assay plates were washed twice with PBST.
Cell lysates from matching wells of each pair of tissue culture plates were combined to =200 µl/well, and were pipetted up and down to mix. Cell lysates were transferred to the assay plates using the same layouts, 170 µl/well.
Assay plates were covered with plate sealers and placed on a Labline plate shaker for 2 hr (speed about 5).
Assay plates were washed 5 times with PBST.
Biotin antibody solution was prepared (16 l biotin antibody stock+32 ml PBST=2000× dilution) and added to the assay plates, 150 µl/well.
Assay plates were covered with plate sealers and placed on a Labline plate shaker for 90 min
Streptavidin-HRP solution was prepared (16 l streptavidin-HRP stock+32 ml PBST=2000× dilution) and added to the assay plates, 150 µl/well.
Assay plates were covered with plate sealers and placed on a Labline plate shaker for 60 min
Substrate was added to the assay plates, 100 µl/well.
As assay plates developed, the plates were each monitored on a Molecular Devices Spectramax set to 650 nm, until the signal in the high control wells was around 0.6 OD and the signal in the negative control wells was around 0.1-0.15 OD.
Stop solution was added to the assay plates, 100 µl/well.
The plates were read on a Molecular Devices Spectramax set to 450 nm.
Data was calculated by Assay Explorer, using same-plate high control wells as 0% and reference standard wells as 100% inhibition of KDR phosphorylation. IC50 values were calculated by non-linear regression analysis of the concentration response data.
Target sequence in this assay (P35968 20-1356): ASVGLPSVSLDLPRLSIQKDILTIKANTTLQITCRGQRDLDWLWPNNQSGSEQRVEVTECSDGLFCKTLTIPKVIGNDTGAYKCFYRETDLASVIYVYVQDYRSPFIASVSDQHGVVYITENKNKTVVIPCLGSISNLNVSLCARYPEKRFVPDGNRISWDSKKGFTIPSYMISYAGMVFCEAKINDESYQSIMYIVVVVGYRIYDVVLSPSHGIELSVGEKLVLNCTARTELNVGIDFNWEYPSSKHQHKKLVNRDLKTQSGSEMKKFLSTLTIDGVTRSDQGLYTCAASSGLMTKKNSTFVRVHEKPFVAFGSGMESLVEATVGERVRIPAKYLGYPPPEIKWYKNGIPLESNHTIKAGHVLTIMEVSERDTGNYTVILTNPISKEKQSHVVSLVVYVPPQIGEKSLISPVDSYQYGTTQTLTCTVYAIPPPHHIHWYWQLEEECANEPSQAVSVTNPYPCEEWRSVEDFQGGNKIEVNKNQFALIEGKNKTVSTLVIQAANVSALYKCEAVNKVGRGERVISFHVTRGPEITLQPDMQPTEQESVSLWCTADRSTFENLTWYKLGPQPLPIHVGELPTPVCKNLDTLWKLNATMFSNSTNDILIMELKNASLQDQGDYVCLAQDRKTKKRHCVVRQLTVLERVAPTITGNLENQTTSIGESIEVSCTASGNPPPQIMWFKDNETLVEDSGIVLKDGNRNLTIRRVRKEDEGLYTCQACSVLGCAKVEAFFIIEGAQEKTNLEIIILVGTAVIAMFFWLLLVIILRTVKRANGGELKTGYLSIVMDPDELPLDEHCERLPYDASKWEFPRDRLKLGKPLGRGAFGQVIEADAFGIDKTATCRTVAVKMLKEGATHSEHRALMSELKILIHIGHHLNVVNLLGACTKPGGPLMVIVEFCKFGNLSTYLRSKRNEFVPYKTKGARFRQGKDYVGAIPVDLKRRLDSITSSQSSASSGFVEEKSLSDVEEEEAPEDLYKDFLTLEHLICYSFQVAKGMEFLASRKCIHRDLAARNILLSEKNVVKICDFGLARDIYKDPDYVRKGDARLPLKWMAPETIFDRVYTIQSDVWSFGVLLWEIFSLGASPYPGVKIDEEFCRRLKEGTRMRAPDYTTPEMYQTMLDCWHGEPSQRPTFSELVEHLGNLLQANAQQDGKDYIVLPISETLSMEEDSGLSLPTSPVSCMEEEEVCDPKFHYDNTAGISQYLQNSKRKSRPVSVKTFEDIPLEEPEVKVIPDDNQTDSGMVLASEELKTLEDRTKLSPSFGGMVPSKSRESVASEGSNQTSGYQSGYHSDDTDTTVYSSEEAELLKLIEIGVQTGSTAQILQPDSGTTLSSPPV
A general note: In an ELISA, binding on a coated surface is turned into a signal by an enzyme label.

The next experiment has as its target T2, Aurora A (Homo sapiens, UniProt O14965).
T2 sequence (O14965 1-403): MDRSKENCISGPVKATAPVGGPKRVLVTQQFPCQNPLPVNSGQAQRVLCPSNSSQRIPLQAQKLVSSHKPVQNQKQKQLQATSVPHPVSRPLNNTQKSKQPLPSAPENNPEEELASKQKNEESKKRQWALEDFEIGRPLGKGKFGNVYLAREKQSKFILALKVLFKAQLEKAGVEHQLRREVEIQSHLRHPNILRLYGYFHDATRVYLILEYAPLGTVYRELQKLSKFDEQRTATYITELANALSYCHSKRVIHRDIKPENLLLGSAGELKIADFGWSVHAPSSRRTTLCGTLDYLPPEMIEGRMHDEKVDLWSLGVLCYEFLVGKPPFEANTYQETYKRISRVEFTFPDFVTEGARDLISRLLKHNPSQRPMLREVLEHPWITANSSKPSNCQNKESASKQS
In words: Aurora A enzyme inhibition (time-resolved fluorescence, STK substrate-2). The class given is biochemical. The settings on record: 1 mM ATP. The essentials:
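Phosphorylation of biotinylated STK substrate-2 at 1 mM ATP, 1 h, Hepes buffer pH 7.4 (MgCl2, sodium orthovanadate, Triton X-100). After EDTA quench, 665/615 nm time-resolved fluorescence ratio read via europium anti-phospho antibody and SA-XL665; IC50 from exponential fit versus inhibitor concentration.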

Experiment [2] concerns the target T1, KDR. In words: KDR HTRF in vitro kinase assay. In kind it is biochemical. Set-up: purified enzyme (His6-KDR 789-1354, MW 63 kD); His6 (N). The settings on record: 1 mM ATP; read-out: KDR enzyme inhibition data (Ki). In outline:
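His6-KDR 789-1354 (7 ng/well) with 0.5 μM biotinylated peptide substrate and 1 mM ATP in HEPES pH 7.1, MgCl2/MnCl2, 60 min at room temperature. EDTA-quenched, detected by streptavidin-XL-665 plus Eu-kryptate anti-phosphotyrosine HTRF after 3 h; IC50 from 620/665 nm ratio.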
Target sequence in this assay (P35968 789-1354): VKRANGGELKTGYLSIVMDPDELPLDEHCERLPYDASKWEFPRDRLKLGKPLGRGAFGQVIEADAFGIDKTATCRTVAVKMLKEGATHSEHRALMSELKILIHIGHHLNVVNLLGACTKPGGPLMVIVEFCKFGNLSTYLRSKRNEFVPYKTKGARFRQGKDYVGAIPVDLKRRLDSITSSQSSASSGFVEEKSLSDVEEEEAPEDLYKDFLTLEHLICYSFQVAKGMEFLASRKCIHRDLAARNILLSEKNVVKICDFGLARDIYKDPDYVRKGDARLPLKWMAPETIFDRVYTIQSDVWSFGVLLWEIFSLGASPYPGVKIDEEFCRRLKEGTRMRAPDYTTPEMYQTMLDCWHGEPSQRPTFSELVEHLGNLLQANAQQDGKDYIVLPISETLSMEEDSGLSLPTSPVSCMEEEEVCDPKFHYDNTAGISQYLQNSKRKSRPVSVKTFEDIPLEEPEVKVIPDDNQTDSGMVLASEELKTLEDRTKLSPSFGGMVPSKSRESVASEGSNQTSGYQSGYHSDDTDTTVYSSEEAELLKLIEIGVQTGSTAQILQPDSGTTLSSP
For orientation: In TR-FRET formats the signal depends on donor and acceptor labels being close together.

The target in a further experiment is T3, Aurora B (Homo sapiens, UniProt Q96GD4).
T3 construct: Active Aurora B enzyme (recombinant residues 1-344)
In words: Aurora B enzyme inhibition (time-resolved fluorescence, histone H3 peptide). In kind it is biochemical. The settings on record: 1 mM ATP. In outline:
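IC50s came from an exponential fit of inhibition against inhibitor concentration, with phosphorylation read as the 665/615 nm time-resolved fluorescence ratio after EDTA stop using Eu-anti-phospho-H3 and SA-APC. The 1 h reaction used Aurora B 1-344 plus GST-INCENP, biotin-histone H3 1-21 peptide and 1 mM ATP in pH 7.4 HEPES buffer.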

T3 sequence (Q96GD4 whole entry, the tested form may be a part): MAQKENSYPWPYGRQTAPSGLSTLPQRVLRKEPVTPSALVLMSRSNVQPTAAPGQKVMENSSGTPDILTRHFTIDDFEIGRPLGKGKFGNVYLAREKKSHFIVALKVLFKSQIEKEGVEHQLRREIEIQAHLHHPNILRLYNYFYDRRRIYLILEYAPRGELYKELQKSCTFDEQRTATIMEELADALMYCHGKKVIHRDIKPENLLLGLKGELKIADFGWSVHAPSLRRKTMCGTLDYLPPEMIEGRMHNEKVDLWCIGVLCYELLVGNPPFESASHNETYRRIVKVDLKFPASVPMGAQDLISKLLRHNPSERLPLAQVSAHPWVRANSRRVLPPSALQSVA
T3 sequence (Q9NQS7 826-918 partner limits assumed): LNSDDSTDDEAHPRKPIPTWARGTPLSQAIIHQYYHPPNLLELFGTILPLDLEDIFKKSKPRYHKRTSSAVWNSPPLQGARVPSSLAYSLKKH

With `CCn1cc(Nc2nc(C)c(Cl)c(N[C@@H]3[C@H](C(N)=O)[C@H]4C=C[C@@H]3C4)n2)cn1.CCn1cc(Nc2nc(C)c(Cl)c(N[C@H]3[C@@H](C(N)=O)[C@@H]4C=C[C@H]3C4)n2)cn1` (mixture of isomers) [Example 126, (1S,2S,3R,4R)-3-({5-chloro-2-[(1-ethyl-1H-pyrazol-4-yl)amino]-6-methylpyrimidin-4-yl}amino)bicyclo[2.2.1]hept-5-ene-2-carboxamide and (1R,2R,3S,4S)-3-({5-chloro-2-[(1-ethyl-1H-pyrazol-4-yl)amino]-6-methylpyrimidin-4-yl}amino)bicyclo[2.2.1]hept-5-ene-2-carboxamide], the IC50 – broadly, the concentration that inhibits the measured activity by half – on KDR [1] is 100 to 1000 nM. The results for the inhibition constant Ki on Aurora A, at KDR [2] and on Aurora B were less than 100 nM, 100 to 1000 nM and less than 100 nM, respectively.

Turning to `Cn1cc(Nc2ncc(Cl)c(N[C@@H]3CC=CC[C@@H]3C(N)=O)n2)cn1.Cn1cc(Nc2ncc(Cl)c(N[C@H]3CC=CC[C@H]3C(N)=O)n2)cn1` (mixture of isomers) [Example 146, (1S,6R)-6-({5-chloro-2-[(1-methyl-1H-pyrazol-4-yl)amino]pyrimidin-4-yl}amino)cyclohex-3-ene-1-carboxamide and (1R,6S)-6-({5-chloro-2-[(1-methyl-1H-pyrazol-4-yl)amino]pyrimidin-4-yl}amino)cyclohex-3-ene-1-carboxamide], at KDR [1], the IC50 was in the range of 100 to 1000 nM. The inhibition constant (Ki) (usually the dissociation constant of the complex between target and ligand, obtained from inhibition or displacement) on Aurora A is less than 100 nM; at KDR [2], 100 to 1000 nM; at Aurora B it was less than 100 nM.

With `Cn1cc(Nc2ncc(Cl)c(N[C@@H]3CCCC[C@@H]3C(N)=O)n2)cn1.Cn1cc(Nc2ncc(Cl)c(N[C@H]3CCCC[C@H]3C(N)=O)n2)cn1` (mixture of isomers) [Example 147, (1S,2R)-2-({5-chloro-2-[(1-methyl-1H-pyrazol-4-yl)amino]pyrimidin-4-yl}amino)cyclohexanecarboxamide and (1R,2S)-2-({5-chloro-2-[(1-methyl-1H-pyrazol-4-yl)amino]pyrimidin-4-yl}amino)cyclohexanecarboxamide], at KDR [1], the IC50 was 100 to 1000 nM. In addition, the Ki at Aurora A, on KDR [2] and on Aurora B was less than 100 nM each time.

As to `CC(C)NC(=O)[C@@H]1CCC[C@@H]1Nc1nc(Nc2cnn(C)c2)ncc1Cl.CC(C)NC(=O)[C@H]1CCC[C@H]1Nc1nc(Nc2cnn(C)c2)ncc1Cl` (mixture of isomers) [Example 156, (1S,2R)-2-({5-chloro-2-[(1-methyl-1H-pyrazol-4-yl)amino]pyrimidin-4-yl}amino)-N-isopropylcyclopentanecarboxamide and (1R,2S)-2-({5-chloro-2-[(1-methyl-1H-pyrazol-4-yl)amino]pyrimidin-4-yl}amino)-N-isopropylcyclopentanecarboxamide], on KDR [1], the IC50 is 100 to 1000 nM. The Ki at Aurora A was less than 100 nM; at KDR [2] it was 100 to 1000 nM; on Aurora B it was less than 100 nM.

Regarding `NC(=O)[C@@H]1[C@H](Nc2nc(Nc3cnn(CC(F)(F)F)c3)ncc2C(F)(F)F)[C@H]2C=C[C@@H]1C2` (racemic) [Example 32, (1S,2S,3R,4R)-3-{[2-{[1-(2,2,2-trifluoroethyl)-1H-pyrazol-4-yl]amino}-5-(trifluoromethyl)pyrimidin-4-yl]amino}bicyclo[2.2.1]hept-5-ene-2-carboxamide and (1R,2R,3S,4S)-3-{[2-{[1-(2,2,2-trifluoroethyl)-1H-pyrazol-4-yl]amino}-5-(trifluoromethyl)pyrimidin-4-yl]amino}bicyclo[2.2.1]hept-5-ene-2-carboxamide], on KDR [1], the IC50 is less than 100 nM. Besides, the Ki at Aurora A, at KDR [2] and on Aurora B was less than 100 nM throughout.

Consider `Cc1nn(C)c(C)c1Nc1ncc(Cl)c(N[C@H]2[C@@H](C(N)=O)[C@@H]3C=C[C@H]2C3)n1` [Example 127, (1S,2S,3R,4R)-3-({5-chloro-2-[(1,3,5-trimethyl-1H-pyrazol-4-yl)amino]pyrimidin-4-yl}amino)bicyclo[2.2.1]hept-5-ene-2-carboxamide], for which the IC50 at KDR [1] fell in the range of 100 to 1000 nM. Moreover, the Ki on Aurora A, at KDR [2] and on Aurora B was 100 to 1000 nM each time.

In the case of `Cc1nn(C)c(C)c1Nc1ncc(Br)c(N[C@H]2[C@@H](C(N)=O)[C@@H]3C=C[C@H]2C3)n1` [Example 128, (1S,2S,3R,4R)-3-({5-bromo-2-[(1,3,5-trimethyl-1H-pyrazol-4-yl)amino]pyrimidin-4-yl}amino)bicyclo[2.2.1]hept-5-ene-2-carboxamide], on KDR [1], the IC50 was in the range of 100 to 1000 nM. Moreover, the Ki at Aurora A, at KDR [2] and at Aurora B was 100 to 1000 nM throughout.

Turning to `Cn1cc(Nc2ncc(Cl)c(Nc3ccccc3C3(O)CCOCC3)n2)cn1` [Example 133, 4-[2-({5-chloro-2-[(1-methyl-1H-pyrazol-4-yl)amino]pyrimidin-4-yl}amino)phenyl]tetrahydro-2H-pyran-4-ol], the IC50 at KDR [1] was in the range of 100 to 1000 nM. In addition, the values for the Ki at Aurora A, on KDR [2] and at Aurora B were less than 100 nM, 100 to 1000 nM and less than 100 nM, respectively.

Turning to `Cn1cc(Nc2ncc(Cl)c(Nc3ccccc3C(C)(C)O)n2)cn1` [Example 138, 2-[2-({5-chloro-2-[(1-methyl-1H-pyrazol-4-yl)amino]pyrimidin-4-yl}amino)phenyl]propan-2-ol], the IC50 at KDR [1] lay within 100 to 1000 nM. Further, the Ki on Aurora A, on KDR [2] and at Aurora B was less than 100 nM throughout.

Regarding `Cn1cc(Nc2ncc(Cl)c(Nc3ccccc3CO)n2)cn1` [Example 145, [2-({5-chloro-2-[(1-methyl-1H-pyrazol-4-yl)amino]pyrimidin-4-yl}amino)phenyl]methanol], at KDR [1], the IC50 was in the range of 100 to 1000 nM. Also, the Ki at Aurora A, on KDR [2] and at Aurora B was less than 100 nM in each case.
